Data published in patent US20060166870A1, “Treatment of glioblastoma with thymosin-alpha 1” (Rhode Island Hospital, priority 2001, published 2006).
Values joined by “and” are separate entries in the source; they are usually repeats but may differ in a detail not shown here. Equal entries are not always repeated. “Also recorded” adds a separate entry of the source. No end group written: not given here.

What was measured:
9 L glioblastoma = conditions: for lympho-mononuclear inflammatory cell infiltrates in brain: histopathology, day 20
Experimental: Rat 9 L glioblastoma cells were obtained from the American Type Culture Collection (Washington, D.C.) and certified as pathogen-free. The cells were maintained in Dulbecco's Modified Eagle's Medium (DMEM) supplemented with 5% fetal calf serum (FCS) and 2 mM glutamine. Antibiotics were not added to the medium. Prior to injection, the cells were rinsed with phosphate-buffered saline (PBS), detached from the culture surfaces and dissociated into single cell suspensions with 0.25% trypsin/0.05% EDTA. The dissociated cells were washed 3 times in serum-free DMEM and finally suspended in serum-free DMEM at a density of 5×10^6 viable cells/ml. Viable cell density was determined using Trypan blue exclusion and a hemocytometer chamber.
An in vivo model of glioblastoma was generated in adult (250-300 grams) Long Evans rats. Rats were anesthetized with a single intraperitoneal injection of a cocktail containing 100 mg/kg ketamine and […] in 50% ethanol. After anesthetization, the head was shaved and prepped with povidone iodine, and the rat was placed in a stereotactic headframe. A midline incision was made and a 3 mm burr hole was drilled over the frontal lobe, and 2 μl of 9 L glioma cell suspension (10,000 cells total) was injected directly into the brain using a Hamilton syringe with attached 26-gauge needle placed at a depth of 3.5 mm. After removal of the needle, the wound was washed with sterile saline, the animal was removed from the frame and the skin was closed with resorbable sutures. The rats were returned to their cages and observed for any signs of deterioration including weight loss, reduced food and water intake, hemiparesis, seizures, or inactivity. If any degree of suffering was observed, the animals were euthanized with 120 mg/kg sodium pentobarbital. Animals were observed daily and weighed weekly.
The tumor was allowed to develop for 5 days, followed by anti-neoplastic treatment. Rats were divided into 6 treatment groups: vehicle control; low (45 μg/kg) thymalfasin; high (200 μg/kg) thymalfasin; low thymalfasin+BCNU; high thymalfasin+BCNC; and BCNU (9.4 mg/kg) only. BCNU was administered as a single intraperitoneal (I.P.) injection on day 6 after the intracerebral tumor inoculation. Rats treated with thymalfasin were given single I.P. injections of thymalfasin for 3 consecutive days, beginning on day 6 after tumor cell inoculation. Rats were sacrificed on day 20 post tumor inoculation. The rats were killed by I.P. injection of 120 mg/kg sodium pentobarbital. The brains were harvested, sectioned, immersion fixed in Histochoice (Amresco Co., Solon, Ohio), and processed for paraffin embedding. Tumor burden was assessed from the gross tissue blocks and the histological sections stained with hematoxylin and eosin. Histological sections were also used in immunohistochemical staining studies to detect inflammatory cell infiltrates.
A semiquantitative histological grading scale was used to assess tumor burden for inter-group comparisons: 0—cure, no residual tumor; 1—microscopic tumor (<1 mm) confined to the superficial cortex; 2—tumor mass occupying less than 25% of the hemisphere cross section (1-2 mm); 3—tumor mass occupying up to 50% of the hemisphere cross section (2-3 mm) and extending into deep structures; 4—massive tumor burden with involvement of 50-90% of the hemisphere cross section, with herniation. The sections were coded and graded simultaneously by two separate individuals without knowledge of treatment group. […]

[1] = tested on: Rat 9 L glioblastoma cells; assay: MTT assay of mitochondrial function in thymalfasin-treated 9 L cells; assay type: cell-based; conditions: 24 hours, various concentrations of thymalfasin, vs vehicle
Experimental: (§1) All cell lines were kept at 37° C. in a humidified atmosphere containing 5% CO2. The cell lines were obtained from the American Type Culture Collection and were certified as free of pathogens.
(§2) Thymosin alpha 1 treatment: For acute thymalfasin treatment, cells seeded in 96-well plates at a cell density of 20,000 cells/well were treated with 10^−5 M thymalfasin for 24 hours. Cells treated chronically with thymalfasin were grown in flasks and treated every 24 hours with 10^−5 M thymalfasin (added to fresh medium) for the duration of the treatment (3 days). In addition, for the determination of a dose-response curve to thymalfasin for 9 L cells, cells were treated with serially diluted amounts of thymalfasin, yielding thymalfasin concentrations ranging from 50 µM to […].
(§3) MTT assays were conducted on 9 L and 293 cell lines to determine the effects of thymalfasin treatment and/or H2O2-induced oxidative stress on the mitochondrial function of the cells. After treatment, 10 μl of MTT solution were added to each well containing 100 μl of medium. The plates were incubated with the MTT dye in the 37° C. incubator for 15 min-1 hour, depending on the cell type. The medium was then removed, and 200 μl of acidic Isopropanol was added to each well. The plates were shaken at room temperature until cell lysis occurred, and then read in a Packard SpectraCount™ machine at 540 nm.

[2] = tested on: Rat 9 L glioblastoma cells; assay: Crystal violet (CV) cell viability assay in thymalfasin-treated 9 L cells; assay type: cell-based; conditions: thymalfasin vs vehicle-treated control
Experimental: as §1, §2
Crystal Violet (CV) was also used to stain cells in 96-well plates. After discarding the medium, 20 μl of crystal violet was added to each well and shaken at room temperature for 10 minutes. The plates were then washed several times with warm water and dried. 100-200 μl (depending on cell density) of PBS w/1% SDS was added to each well. The plates were incubated at room temperature on a shaker until the cells were sufficiently lysed. The plates were read at 540 nm to detect differences in cell viability between the various groups tested.

9 L glioblastoma cells [3] = assay: Microtiter immunocytochemical ELISA (MICE) assay of pro-apoptosis/survival gene products, 9 L cells; assay type: cell-based, rat
Experimental: (§4) Microtiter Immunocytochemical ELISA (MICE) Assays (de la Monte, 1999) were done on 9 L and 293 cells. Cells were seeded in 96-well plates, treated with 10^−5M thymalfasin for 24 hours, and histofixed overnight prior to analysis using MICE assay. the fixed cells were permeabilized with 0.05% saponin in Tris-buffered saline (50 mM Tris, pH 7.5, 0.9% NaCl; TBS), blocked with Superblock-TBS (Pierce, Rockford, Ill.), and then incubated overnight at 4° C. with primary antibodies to proliferating cell nuclear antigen (PCNA), bcl-2, p21/Wwaf-1, p53, FasL, FasR, TNF-R1, or GAPDH, each diluted to 0.5-1 μg/ml in TBS containing 0.05% Tween-20 and 0.5% bovine serum albumin (TBST-BSA). Immunoreactivity was detected using horseradish peroxidase conjugated secondary antibody (Pierce, Rockford, Ill.) and the TMB soluble substrate (Pierce, Rockford, Ill.). Reactions were stopped by the addition of 1 M H2SO4 and absorbances were measured at 450 nm in a Spectracount microplate reader (Packard Instrument Co., Meriden, Conn.). Subsequently, cell density was measured by staining the adherent cells with Coomassie blue dye and measuring the absorbance of the eluted dye (de la Monte, 1999). The MICE index was the calculated ratio of TMB and Coomassie blue absorbance measured in the same culture well. Mean±S.D. of results obtained from 16 replicate culture wells were used for inter-group statistical comparisons.
(§5) In this regard, the expression of gene products that promote either apoptosis or cell survival were examined, using housekeeping gene expression as control. The studies were performed in 96-well plates using the microtiter immunocytochemical ELISA […] assay to generate data from multiple replicate cultures. […] Thus, the results of the MICE assays indicate that for the two cell lines, thymalfasin works via different pathways to increase the susceptibility of the cells to cell death by apoptosis.

293 human kidney cells = assay: Microtiter immunocytochemical ELISA (MICE) assay of pro-apoptosis/survival gene products, 293 cells; assay type: cell-based
Experimental: as §4, §5

9 L glioblastoma cells [4] = assay: H2O2-induced oxidative stress sensitivity of thymalfasin-treated 9 L cells (MTT); assay type: cell-based, rat
Experimental: H2O2 was used with cells to induce oxidative stress. […] In the experiments in which serially diluted amounts of thymalfasin were administered to the cells, a constant amount of the […] H2O2 was used to treat the cells. For 9 L cells, an H2O2 curve was developed in order to determine the correct H2O2 concentration with which to treat the cells.
as §3
Validation of the ability of thymalfasin to increase the susceptibility of 9 L and 293 cells to apoptosis was sought testing H2O2-induced oxidative stress. As determined through MTT assays, 9 L cells treated with thymalfasin for 24 hours and subsequently H2O2 for 24 hours did indeed show significant loss in viability in comparison to 9 L cells treated only with H2O2 for 24 hours (FIG. 3).

9 L glioblastoma cells [5] = assay: BCNU-mediated killing of thymalfasin-treated 9 L cells; assay type: cell-based, rat; conditions: 24 or 72 hours thymalfasin treatment
9 L glioblastoma cells [6] = assay: Streptolysin O + recombinant Granzyme B killing assay (ATPlite viability); assay type: cell-based, rat; conditions: thymalfasin 24 h (acute) or 72 h (chronic), then SLO+Granzyme B 1 or 3 hours, p<0.001
Experimental: In order to determine the differential susceptibility of 9 L glioblastoma cells treated (or not) with thymalfasin to cytotoxic T-lymphocyte (CTL) induced apoptosis, experimental assays were conducted in which 9 L cells were treated both acutely for 24 hours and chronically for 72 hours with thymalfasin, after which they were harvested, re-seeded into 96-well black plates (7.5×10^5 cells/75 μl/well), and exposed to 20,000 units/ml Streptolysin O (SLO) plus 100 ng recombinant Granzyme B (reaction volume 100 μl) for 1 or 3 hours at 37° C. The SLO was used in place of perforin to permeabilize the cells, and recombinant Granzyme B was used to standardize the assay. Control studies included parallel reactions in which SLO, Granzyme B, or both were omitted. Viable cell density was measured using the ATPlite assay (Packard Instrument Company, Meriden, Conn.) which has a broad linear dynamic range correlating relative light units with cell densities between 10^3 to 10^6 cells per culture well.
In vivo, malignant neoplastic cells are killed by cytotoxic T cells and macrophages that are recruited by pro-inflammatory cytokines such as IL-2 and IL-12. […] Viability was measured using the ATP luminescence assay and within group comparisons were made to determine the relative killing associated with SLO+Granzyme B treatment. […]

[7] = tested on: Primary neuronal cortical cells; assay: Cell viability of primary cortical neuron cultures (CV and MTT); assay type: cell-based
From the text: Primary cortical neuron cultures were studied to enable selection of thymalfasin doses that would not be toxic to non-neoplastic brain cells.
However, this dose is higher than established experimental and clinical dosages.

[8] = cited from earlier work
[9] = 10^-5 M thymalfasin, 24 hours, P<0.01

O=NN(CCCl)C(=O)NCCCl [BCNU, bischloroethyl nitrosurea]
reduction of tumor burden in responding animals (9 L glioblastoma; BCNU 9.4 mg/kg I.P. single dose, nearly half the group showed no response): up to 50%
lympho-mononuclear inflammatory cell infiltrates in brain (9 L glioblastoma): scant

Thymosin α-1 (SDAAVDTSSEITTKDLKEKKEVVEEAEN; ends and bridges not checked; UniProt P06454 2-29, looked up) [thymalfasin, 28-amino acid peptide, a synthetic form of a naturally occurring compound that is found in circulation]
cell mitochondrial functioning (MTT) [1]: minimal effect; also recorded: insignificant decrease; also recorded: no direct effect
cell viability / direct cytotoxic effect [2]: minimal effect; also recorded: no significant direct cytotoxic effects; also recorded: no direct effect
increase in FasL level relative to vehicle-treated controls (9 L glioblastoma cells [3]; [9]): 65.89%
increase in FasR level relative to vehicle-treated controls (9 L glioblastoma cells [3]; [9]): 44.08%
increase in TNF-R1 level relative to vehicle-treated controls (9 L glioblastoma cells [3]; [9]): 22.18%
GAPDH expression level (9 L glioblastoma cells [3]; thymalfasin 24 hours): not significantly affected
bcl-2 expression level (9 L glioblastoma cells [3]; thymalfasin 24 hours): not significantly affected
change in FasL expression (293 human kidney cells; data not shown): no significant changes
change in FasR expression (293 human kidney cells; data not shown): no significant changes
change in TNF-R1 expression (293 human kidney cells; data not shown): no significant changes
reduction in bcl-2 (293 human kidney cells; thymalfasin, P<0.01, data not shown): 36.67%
decrease in mitochondrial functioning (MTT) vs cells treated only with H2O2 (9 L glioblastoma cells [4]; 9 L cells, thymalfasin 24 hours then 270 μM H2O2 24 hours): 26.6%
9 L cells killed by ordinarily non-lethal (sub-lethal) H2O2 after thymalfasin treatment (9 L glioblastoma cells [4]; 24 or 72 hours thymalfasin treatment): 25% and 30-50%
9 L cells killed by sub-lethal concentrations of BCNU after thymalfasin treatment (9 L glioblastoma cells [5]): 40%
cell viability after SLO+Granzyme B relative to SLO, Granzyme B or vehicle alone (9 L glioblastoma cells [6]): significant reductions in cell viability
decrease in viability (MTT) of primary neuronal cortical cells ([7]; highest concentration of thymalfasin used (3.3×10^−7M as printed)): 30%
cell viability of primary neuronal cortical cells ([7]; serial dilutions, 3.3×10^−5 M to 1×10^−9 M, experimental doses): no decrease in cell viability
tumor burden / tumor growth (9 L glioblastoma; Long Evans rats, 10,000 9 L cells intracerebral, I.P. treatment from day 6, sacrifice day 20, BCNU 9.4 mg/kg, thymalfasin 45 or 200 μg/kg): the same as control or worse
lympho-mononuclear inflammatory cell infiltrates in brain (9 L glioblastoma): conspicuous
intracerebral swelling and herniation (9 L glioblastoma; rat, in vivo): extreme intracerebral swelling
dose found to be safe for humans [8]: ≤ 16 mg/kg body weight/day
